Test results taken from paper PMC12028564, “A New Class of BRCA1 Mimetics for ERα-Positive Breast Cancer Therapy: Design, Synthesis, In Silico Screening, In Vitro Assay, and Gene Expression Analysis” (Life, 2025).
Read-outs that look alike come from different tables or passages of the source.

Assays:
MDA-MB-231 cells [1] = experiment: MTT cytotoxicity assay on MDA-MB-231 cells; type: cell-based, human
Source text: (§1) Vero cells are known for their ability to assess the safety of new compounds and their sensitivity to a wide range of toxic substances. MDA-MB-231 cells are derived from human […] breast cancer tissue. MDA-MB-231 cells provide a reliable method for assessing the toxicity and effectiveness of potential anticancer compounds, especially those that target estrogen receptors or associated pathways. We assessed the anticancer activity of the compounds on Vero cells and MDA-MB-231 using the MTT (3-(4,5-dimethyl thiazol-2yl)-2,5-diphenyl tetrazolium bromide) assay. The MTT assay is one of the most commonly used for cancer drug screening. This is a basic and easy assay for cytotoxicity, and it is one of the most popular cytotoxicity assays in the research laboratory. We plated cells (1 × 10^5/well) in 96-well plates using 0.2 mL of medium per well. We carefully removed the media from the wells for the MTT assay after incubation. After two to three MEM (w/o) FCS washes, 200 µL of MTT (5 mg/mL) was added to each well. We incubated the plates for 6–7 h in a 5% CO^2 incubator to test for cytotoxicity. Following the incubation, we added […] of vehicle (DMSO) to each well, mixed it thoroughly with a micropipette, and left it for 45 s. NADPH-dependent dehydrogenase catalyzes the conversion of tetrazolium salt (MTT) into a purple formazan product in cells. This indicates the presence of metabolically active cells. We placed the solution in the spectrophotometer’s cuvette and recorded the optical density at 595 nm, using DMSO as the blank reference. Measurements were conducted, and the concentration required for 50% inhibition of viability (IC50) was visually determined. A standard graph was constructed, with the drug concentration plotted on the X-axis and relative cell viability on the Y-axis. %Cell Viability=Mean Optical Density of Individual Sample/Mean Optical Density of Control×100

BCL2 = experiment: RT-qPCR gene expression of BCL2 (ΔΔCt method, GAPDH reference) in MDA-MB-231 cells; type: cell-based, human; settings: versus cell control
Source text: To determine whether the synthesized compounds were repressing the ER alpha protein or not, we performed gene expression analyses for Cyclin D1 and BCL2 using the real-time quantitative polymerase chain reaction (RT-qPCR). RT-qPCR is an efficient, simple, and low-cost technique to quantify gene expression levels. The delta-delta Ct (ΔΔCt) method is a widely used technique for analyzing real-time quantitative PCR (qPCR) data. We chose three compounds, 9b, 9l, and 9m, based on their lowest IC50 values and conducted gene expression studies for BCL2 and Cyclin D1. We used the GAPDH as a reference gene. […]
A 100-picomolar primer stock was prepared utilizing primers of Cyclin D1, BCL2, and GAPDH (Table 6), which were then diluted to a 10-picomolar working stock for use in real-time PCR. RNA was extracted from four samples utilizing the PureLink RNA Mini Kit and quantified using the Biophotometer Plus (Table 3). […] Then, using the formula below (1), we determined the ΔCt from the mean Ct values of Cyclin D1 and BCL2 with reference to the reference gene’s GAPDH mean Ct values. […] The comparative Ct was used for quantification analysis, and the Ct values (Ct1, Ct2, and Ct3) were averaged.ΔCt = Ct (gene of interest) − Ct (housekeeping gene)(1)
We calculated the ΔΔCt from the ΔCt values of the Cyclin D1 and BCL2. […]

Cyclin D1 = experiment: RT-qPCR gene expression of Cyclin D1 (ΔΔCt method, GAPDH reference) in MDA-MB-231 cells; type: cell-based, human; settings: for Cyclin D1 ΔΔCt: versus cell control
Source text: To determine whether the synthesized compounds were repressing the ER alpha protein or not, we performed gene expression analyses for Cyclin D1 and BCL2 using the real-time quantitative polymerase chain reaction (RT-qPCR). RT-qPCR is an efficient, simple, and low-cost technique to quantify gene expression levels. The delta-delta Ct (ΔΔCt) method is a widely used technique for analyzing real-time quantitative PCR (qPCR) data. We chose three compounds, 9b, 9l, and 9m, based on their lowest IC50 values and conducted gene expression studies for BCL2 and Cyclin D1. We used the GAPDH as a reference gene. We chose primer pairings with the lowest penalty value designed by the Primer Express 2.0 software to obtain the best results.
A 100-picomolar primer stock was prepared utilizing primers of Cyclin D1, BCL2, and GAPDH (Table 6), which were then diluted to a 10-picomolar working stock for use in real-time PCR. RNA was extracted from four samples utilizing the PureLink RNA Mini Kit and quantified using the Biophotometer Plus (Table 3). A total of 1 µg of RNA was taken from the isolated RNA and used for cDNA synthesis with the Takara Prime Script 1st Strand cDNA Synthesis Kit. Each real-time PCR experiment utilized 25 ng of cDNA, 10 picomolar forward and reverse primers, and a final reaction volume of 20 µL. Cyclin D1, BCL2, and GAPDH average Ct values were extracted from each sample’s replicates. Then, using the formula below (1), we determined the ΔCt from the mean Ct values of Cyclin D1 and BCL2 with reference to the reference gene’s GAPDH mean Ct values. In the real-time qPCR, the temperature was set at 95 °C for 10 min (denaturation), then 40 cycles at 95 °C for 15 s and 60 °C for one minute. Each sample was processed in triplicate in six-well plates for the qPCR analysis using the Qiagen kit. The comparative Ct was used for quantification analysis, and the Ct values (Ct1, Ct2, and Ct3) were averaged.ΔCt = Ct (gene of interest) − Ct (housekeeping gene)(1)
We calculated the ΔΔCt from the ΔCt values of the Cyclin D1 and BCL2. The […] were calculated using the following Formula (2).ΔΔCt = ΔCt (Sample) − ΔCt (Control)(2)
Finally, we calculated the fold gene expression for CyclinD1 and BCL2 with reference to the reference gene GAPDH using the following Formula (3) (Table 5).Fold gene expression = 2^−ΔΔCt(3)

Vero cells = experiment: MTT cytotoxicity assay on Vero cells; type: cell-based
Source text: as §1

MDA-MB-231 cells [2] = tested on: MDA-MB-231 cells; set-up: method as in PMID 24278556; settings: reference drug, reported value; cited from earlier work

Structure (SMILES): Oc1c/c(=N\NC(=S)/N=C/c2ccc(Cl)cc2)oc2ccccc12 [Compound 9b]
- IC50 (MDA-MB-231 cells [1]; Homo sapiens): 14.5 µM
- BCL2 ΔΔCt (BCL2): 1.42
- Relative gene expression CyclinD1 (Cyclin D1; control = 1): 1.485
- Cyclin D1 2^(−ΔΔCt) (Cyclin D1; fold gene expression): 1.485
- Cyclin D1 ΔΔCt (Cyclin D1): −0.57
- IC50 (Vero cells; Chlorocebus sabaeus): 60.9 µM

Structure (SMILES): Cc1c/c(=N\NC(=S)/N=C/c2ccc(Cl)cc2Cl)oc2cc(O)ccc12 [Compound 7a]
- IC50 (MDA-MB-231 cells [1]): 357 µM
- IC50 (Vero cells): 513 µM

Structure (SMILES): Cc1c/c(=N\NC(=S)/N=C/c2ccc(Br)cc2)oc2cc(O)ccc12 [Compound 7m]
- IC50 (MDA-MB-231 cells [1]): 90.5 µM
- IC50 (Vero cells): 149 µM

Structure (SMILES): Oc1cc(/C=N/C(=S)N/N=c2\cc(O)c3ccccc3o2)cc(O)c1O [Compound 9n]
- IC50 (MDA-MB-231 cells [1]): 47.7 µM
- IC50 (Vero cells): 119 µM

Structure (SMILES): Oc1c/c(=N\NC(=S)/N=C/c2ccc(Br)cc2)oc2ccccc12 [Compound 9m]
- IC50 (MDA-MB-231 cells [1]; Homo sapiens): 42.1 µM
- BCL2 ΔΔCt (BCL2): 1.41
- Cyclin D1 ΔΔCt (Cyclin D1): 2.03
- IC50 (Vero cells; Chlorocebus sabaeus): 68.7 µM

Structure (SMILES): Oc1c/c(=N\NC(=S)/N=C/c2cccc3ccccc23)oc2ccccc12 [Compound 9c]
- IC50 (MDA-MB-231 cells [1]): 61.5 µM
- IC50 (Vero cells): 87.4 µM

Structure (SMILES): COc1ccc(/C=N/C(=S)N/N=c2\cc(C)c3ccc(O)cc3o2)cc1 [Compound 7i]
- IC50 (MDA-MB-231 cells [1]): 237 µM
- IC50 (Vero cells): 292 µM

Structure (SMILES): O=[N+]([O-])c1ccc(/C=N/C(=S)N/N=c2\cc(O)c3ccccc3o2)cc1 [Compound 9l]
- IC50 (MDA-MB-231 cells [1]; Homo sapiens): 35.1 µM
- Cyclin D1 ΔΔCt (Cyclin D1): 2.2
- IC50 (Vero cells; Chlorocebus sabaeus): 87.7 µM

Structure (SMILES): O=C(c1ccc(OCCN2CCCCC2)cc1)c1c(-c2ccc(O)cc2)sc2cc(O)ccc12 [Raloxifene]
- IC50 (MDA-MB-231 cells [2]): 13.7 µM
